# Experimental data taken from patent US10391268B2, “Device and method of delivering particles in the upper respiratory tract” (SERVICES MEDICAUX ARNOLD ET JOAN ZIDULKA INC., priority 2016, dated 2019).
# Test system: patient suffering from post-nasal drip and upper laryngeal syndrome
# Experiment: two rounds of testing of orally administered, nasally exhaled aerosolized ciclesonide in a patient
# Format: in vivo
# Settings: one patient; two rounds with an interval of two weeks; two sprays of 200 micrograms ciclesonide into FIG. 3 device, four to six oral inhalations each followed by nasal exhalation, morning and evening for two weeks
# From the text: The Applicant has performed two rounds of testing on a patient suffering from post-nasal drip and upper laryngeal syndrome with an interval of two weeks between the rounds, each round consisting in administering a therapeutically effective dose of ciclesonide using the method of the present invention. […] In some embodiments, the therapeutically effective dose of ciclesonide for the treatment of upper airway cough syndrome is from 25 to 800 micrograms. Use of ciclesonide for the treatment of upper airway cough syndrome provides the advantage of avoiding fungal infections typically associated with administration of corticosteroid in the posterior nasal region, pharynx and the larynx.
# In conducting the rounds of testing, the Applicant used the embodiment of the oral delivery device of the present invention shown in FIG. 3. […] It should be noted that in some embodiments, the effective volume is greater or smaller than 375 milliliters. In operation, the patient released two sprays of aerosolized ciclesonide into the oral delivery device, each one of the sprays containing 200 micrograms of ciclesonide, and performed four to six oral inhalations, each one of the inhalations being followed by a nasal exhalation into the ambient atmosphere. Each one of the inhalations drew ambient air into the oral delivery device to sweep in an additional amount of aerosolized ciclesonide. […]
smiles,measurement,value
CC(C)C(=O)OCC(=O)[C@@]12O[C@H](C3CCCCC3)O[C@@H]1C[C@H]1[C@@H]3CCC4=CC(=O)C=C[C@]4(C)[C@H]3[C@@H](O)C[C@@]12C [ciclesonide],patient-reported symptoms typical of upper airway cough syndrome following each round,significant alleviation of the symptoms
